Laboratory results published in publication PMC12932713, “Structure-activity relationship of prevalent synthetic cannabinoid metabolites on hCB1 in vitro and in silico dynamics” (Acta Pharmacologica Sinica, 2025).
Several values for one entry are separate records, joined by “and”; a condition that tells them apart may be missing. Equal values may be shown once.

Tests used:
hCB1 receptor = hCB1 receptor (Homo sapiens, UniProt P21554); assay: AequoScreen hCB1 receptor assay (flash luminescence, recombinant CHO-K1 cells); settings: for Emax: CHO-K1, read-out: Efficacy (% JWH-018 activity), Emax, Emax from dose-response curves, normalized to JWH-018 at 20 µg/mL; for Emax / Efficacy (% JWH-018 activity), Emax: triplicates; for EC50: EC50, 8 concentrations 20 µg/mL to 76 or 9.5 ng/mL, normalized to JWH-018 between runs; for Potency retained, % of the potency of the parent: hydroxyindole metabolites versus AM-2201 or JWH-018; for Efficacy (% JWH-018 activity), Emax: Emax from dose-response curves, normalized to JWH-018 at 20 µg/mL
Chain of hCB1 receptor (P21554 whole entry): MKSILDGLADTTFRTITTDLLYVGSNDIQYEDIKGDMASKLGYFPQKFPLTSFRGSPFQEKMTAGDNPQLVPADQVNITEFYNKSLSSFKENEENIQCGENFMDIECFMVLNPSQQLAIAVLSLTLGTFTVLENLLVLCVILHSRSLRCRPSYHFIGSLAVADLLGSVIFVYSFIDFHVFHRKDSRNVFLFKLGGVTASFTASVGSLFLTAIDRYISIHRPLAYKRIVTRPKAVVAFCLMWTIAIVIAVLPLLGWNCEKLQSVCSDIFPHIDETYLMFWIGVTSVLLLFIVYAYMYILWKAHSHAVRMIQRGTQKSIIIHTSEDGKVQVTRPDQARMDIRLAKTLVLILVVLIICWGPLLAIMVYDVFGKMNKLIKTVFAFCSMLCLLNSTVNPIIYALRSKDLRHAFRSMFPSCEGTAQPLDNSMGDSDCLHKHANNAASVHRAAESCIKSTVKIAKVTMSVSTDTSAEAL

CB1 receptor = settings: cited from earlier work
[1] = tested on: serotonin receptor 5-HT2A; design: method as in PMID 27779402, PMID 33160102, PMID 21755008; settings: cited from earlier work

| Compound | Emax (hCB1 receptor) | EC50 (hCB1 receptor) | also measured |
| --- | --- | --- | --- |
| O=C(c1cccc2ccccc12)c1cn(CCCCCF)c2ccc(O)cc12 [5-OH indole AM-2201] | 93.4% | 306 nM | Potency retained, % of the potency of the parent (hCB1 receptor): over 12% |
| O=C(c1cccc2ccccc12)c1cn(CCC(O)CCF)c2ccccc12 (stereo not drawn) [3-OH pentyl AM-2201] | 100% | 221 nM | – |
| CCCCCn1cc(C(=O)c2cccc3ccccc23)c2cccc(O)c21 [7-OH indole JWH-018] | < 20% | – | Efficacy (% JWH-018 activity), Emax (hCB1 receptor): 15.81 % JWH-018 activity; Activity on the CB1 receptor in words (CB1 receptor): active |
| CCCCCn1nc(C(=O)c2cccc3ccccc23)c2ccccc21 [THJ-018, 1-naphthalenyl(1-pentyl-1H-indazol-3-yl)-methanone, reference compound] | 96.4% | 48.8 nM | Efficacy (% JWH-018 activity), Emax (hCB1 receptor): 96.34 % JWH-018 activity |
| CCC(O)CCn1nc(C(=O)c2cccc3ccccc23)c2ccccc21 (stereo not drawn) [3-OH pentyl THJ-018] | 99.8% | 202 nM | – |
| O=C(c1cccc2ccccc12)c1nn(CC(O)CCCF)c2ccccc12 (stereo not drawn) [2-OH-pentyl THJ-2201] | 87% | 403 nM | – |
| O=C(O)CCCCn1cc(C(=O)c2cccc3ccccc23)c2ccccc21 [Pentanoic acid JWH-018] | 0.23% | – | hCB1 activity in other in vitro studies, in words (CB1 receptor): inactive |
| O=C(c1cccc2ccccc12)c1nn(CCCC(O)CF)c2ccccc12 (stereo not drawn) [4-OH-pentyl THJ-2201] | 99.2% | 13.7 nM | Potency increase versus the parent SC (hCB1 receptor; metabolite more potent than parent): 2.2 × |
| CC(O)CCCn1nc(C(=O)c2cccc3ccccc23)c2ccccc21 (stereo not drawn) [4-OH pentyl THJ-018] | 98.5% | 175 nM | – |
| CCCCCn1cc(C(=O)c2cccc3ccccc23)c2cc(O)ccc21 [5-OH indole JWH-018] | 88.9% | 1130 nM | Potency retained, % of the potency of the parent (hCB1 receptor): 4%; Activity on the CB1 receptor in words (CB1 receptor): active |
| O=C(c1cccc2ccccc12)c1cn(CCCCCF)c2ccccc12 [AM-2201, [1-(5-fluoropentyl)-1H-indol-3-yl]-1-naphthalenyl-methanone, reference compound] | 99.7% | 36 nM and 36.4 nM | – |
| CCCCCn1cc(C(=O)c2cccc3ccccc23)c2ccc(O)cc21 [6-OH indole JWH-018] | 59% | 460 nM | Efficacy (% JWH-018 activity), Emax (hCB1 receptor): 59.31 % JWH-018 activity; Potency retained, % of the potency of the parent (hCB1 receptor): 4%; Activity on the CB1 receptor in words (CB1 receptor): active; hCB1 activity in other in vitro studies, in words (CB1 receptor): significantly less Emax than its 5-hydroxy isomer |
| O=C(c1cccc2ccccc12)c1cn(CC(O)CCCF)c2ccccc12 (stereo not drawn) [2-OH pentyl AM-2201] | 95.1% | 375 nM | – |
| O=C(c1cccc2ccccc12)c1cn(CCCCCF)c2cccc(O)c12 [4-OH indole AM-2201] | 94.6% | 44 nM and 43.7 nM | Potency retained, % of the potency of the parent (hCB1 receptor): 83% |
| O=C(O)CCCCn1nc(C(=O)c2cccc3ccccc23)c2ccccc21 [Pentanoic acid THJ-018] | 11.7% | – | – |
| O=C(c1cccc2ccccc12)c1cn(CCCC(O)CF)c2ccccc12 (stereo not drawn) [4-OH pentyl AM-2201] | 97.1% | 63.6 nM | – |

| Compound | Emax (hCB1 receptor) | EC50 (hCB1 receptor) | also measured |
| --- | --- | --- | --- |
| O=C(c1cccc2ccccc12)c1cn(CCCCCF)c2c(O)cccc12 [7-OH indole AM-2201] | 110% | 282 nM | Efficacy (% JWH-018 activity), Emax (hCB1 receptor): 109.80 % JWH-018 activity; Potency retained, % of the potency of the parent (hCB1 receptor): over 12% |
| CCCCCn1c(O)c(C(=O)c2cccc3ccccc23)c2ccccc21 [2-OH indole JWH-018] | -0.38% | – | – |
| O=C(c1cccc2ccccc12)c1cn(CCCCCO[C@@H]2O[C@H](C(=O)O)[C@@H](O)[C@H](O)[C@H]2O)c2ccccc12 [reference compound] | – | – | Activity on hCB1 in words (CB1 receptor): neutral antagonist |
| CCCC(O)Cn1cc(C(=O)c2cccc3ccccc23)c2ccccc21 (stereo not drawn) [2-OH pentyl JWH-018] | 82% | 750 nM | – |
| CCCC(O)Cn1nc(C(=O)c2cccc3ccccc23)c2ccccc21 (stereo not drawn) [2-OH pentyl THJ-018] | 93.6% | 1110 nM | – |
| CCCCCn1cc(C(=O)O)c2ccccc21 [carboxylic acid PB-22, reference compound] | – | – | Activation of the serotonin receptor 5-HT2A in words [1]: activated; CB1 / hCB1 activity in words (CB1 receptor; in vivo rat model and in vitro): inactive |
| CCCCCn1cc(C(=O)c2cccc3ccccc23)c2c(O)cccc21 [4-OH indole JWH-018] | 89.8% | 83.6 nM | Potency retained, % of the potency of the parent (hCB1 receptor): 51%; Activity on the CB1 receptor in words (CB1 receptor): active |
| O=C(c1cccc2ccccc12)c1nn(CCCCCO)c2ccccc12 [5-OH pentyl THJ-018] | 67.3% | 274 nM | – |
| CC(O)CCCn1cc(C(=O)c2cccc3ccccc23)c2ccccc21 (stereo not drawn) [4-OH pentyl JWH-018] | 105% | 288 nM | hCB1 activity in other in vitro studies, in words (CB1 receptor): active metabolites |
| O=C(c1cccc2ccccc12)c1cn(CCCCCO)c2ccccc12 [5-OH pentyl JWH-018] | 63.1% | 178 nM | hCB1 activity class in words (full agonist, partial agonist, inactive) (hCB1 receptor; less than 20% efficacy regarded as inactive): partial agonist; hCB1 activity in other in vitro studies, in words (CB1 receptor): active metabolites |
| O=C(c1cccc2ccccc12)c1cn(CCCCCF)c2cc(O)ccc12 [6-OH indole AM-2201] | 94% | 122 nM | Efficacy (% JWH-018 activity), Emax (hCB1 receptor): 94.04 % JWH-018 activity; Potency retained, % of the potency of the parent (hCB1 receptor): over 12% |
| CCC(O)CCn1cc(C(=O)c2cccc3ccccc23)c2ccccc21 (stereo not drawn) [3-OH pentyl JWH-018] | 96% | 3510 nM | – |
| CCCCCn1cc(C(=O)c2cccc3ccccc23)c2ccccc21 [JWH-018, 1-naphthalenyl(1-pentyl-1H-indol-3-yl)-methanone, reference compound] | 102% | 42.4 nM | hCB1 activity in other in vitro studies, in words (CB1 receptor): agonist at nanomolar concentrations |
| O=C(c1cccc2ccccc12)c1nn(CCC(O)CCF)c2ccccc12 (stereo not drawn) [3-OH-pentyl THJ-2201] | 101% | 159 nM | – |
| O=C(c1cccc2ccccc12)c1nn(CCCCCF)c2ccccc12 [THJ-2201, [1-(5-fluoropentyl)-1H-indazol-3-yl]-1-naphthalenyl-methanone, reference compound] | 92.8% | 30.7 nM and 30.6 nM | – |
| O=C(c1cccc2ccccc12)c1c(O)n(CCCCCF)c2ccccc12 [2-OH indole AM-2201] | 0.26% | – | – |
